These results are taken from patent publication US12441730B2, “PRMT5 inhibitors” (Merck Sharp & Dohme LLC, priority 2019, dated 2025).

Where two headings read alike, the source gives them in different places.

For test [1], the target named is T1, Full-length (FL)-PRMT5-MEP50 enzyme complex (Homo sapiens, UniProt O14744).
T1 construct: Full-length (FL)-PRMT5-MEP50 enzyme complex (recombinant proteins from baculovirus-transfected Sf21 cells: FL-PRMT5; MW=73837 kDa and FL-MEP50; MW=38614); made in house; host or cells: baculovirus-transfected Sf21 cells
T1 sequence (O14744 whole entry): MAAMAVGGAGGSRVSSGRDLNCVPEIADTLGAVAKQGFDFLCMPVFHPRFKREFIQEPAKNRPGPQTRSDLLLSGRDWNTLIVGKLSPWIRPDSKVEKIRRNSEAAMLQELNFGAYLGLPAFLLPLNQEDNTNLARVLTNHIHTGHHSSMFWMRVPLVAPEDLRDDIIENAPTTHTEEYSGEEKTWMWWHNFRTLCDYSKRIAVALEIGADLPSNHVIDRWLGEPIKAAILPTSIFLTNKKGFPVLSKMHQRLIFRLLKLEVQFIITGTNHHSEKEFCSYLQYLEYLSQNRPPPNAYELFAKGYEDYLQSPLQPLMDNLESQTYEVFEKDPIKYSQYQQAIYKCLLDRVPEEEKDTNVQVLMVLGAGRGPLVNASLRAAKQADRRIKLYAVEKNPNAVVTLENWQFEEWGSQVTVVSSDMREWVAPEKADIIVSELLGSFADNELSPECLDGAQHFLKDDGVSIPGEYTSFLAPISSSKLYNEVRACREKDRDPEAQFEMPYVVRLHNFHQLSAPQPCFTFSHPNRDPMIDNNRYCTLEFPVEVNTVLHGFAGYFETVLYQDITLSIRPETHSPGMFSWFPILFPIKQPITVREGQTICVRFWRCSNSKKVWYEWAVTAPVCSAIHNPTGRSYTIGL
T1 sequence (Q9BQA1 whole entry partner): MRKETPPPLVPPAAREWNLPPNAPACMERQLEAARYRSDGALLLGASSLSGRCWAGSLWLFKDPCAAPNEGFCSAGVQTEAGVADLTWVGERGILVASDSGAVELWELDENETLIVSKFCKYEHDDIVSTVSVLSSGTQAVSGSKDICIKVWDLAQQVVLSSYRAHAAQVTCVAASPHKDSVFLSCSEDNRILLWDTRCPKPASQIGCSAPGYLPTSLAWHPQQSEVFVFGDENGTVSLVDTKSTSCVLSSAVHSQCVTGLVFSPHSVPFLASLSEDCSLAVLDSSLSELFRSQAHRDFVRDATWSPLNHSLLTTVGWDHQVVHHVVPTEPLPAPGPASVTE
The test can be described thus: PRMT5-MEP50 Enzyme Methylation Assay (Version A). It counts as biochemical. In a few lines: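 Compound was pre-incubated with enzyme for 60 min, then reacted 150 min at 37° C. at final 1.0 nM PRMT5-MEP50, 15 μM SAM and 75 nM biotinylated H4R3(Me1) peptide, in 50 mM Bicine pH 8.0 with 1% DMSO. SAMDI mass-spectrometric readout of Me1→Me2 conversion. EC50 from 4- or 7-parameter regression.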

Test [2] has as its system symmetric dimethylation of arginine (SDMA) of PRMT5 substrates in MCF-7 cells. The test can be described thus: PRMT5 Cell Target Engagement (TE) Assay. It counts as cell-based. Conditions: Homo sapiens, MCF7, 72 h, 3 days treatment, SDMA high content imaging. In a few lines: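 MCF-7 cells treated 3 days at 37 °C with a ten-point 1:3 titration from 10000 nM. Fixed cells immunostained with anti-SDMA and Alexa488 secondary; nuclear fluorescence quantified by high-content imaging versus DMSO wells, with IC50 from a 4-parameter fit.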

Where [3] appears, read: second value of 7 parameter biphasic fit, read-out: Enzyme Methylation Assay Version A (EC50 2).
Setting [4] is: single EC50 = 4 parameter single site sigmoidal fit, EC50 1 = first value of 7 parameter biphasic fit, read-out: Enzyme Methylation Assay Version A (EC50 or EC50 1).

In the case of `Cc1ccc(C(=O)N2CC[C@]3(Cc4ccccc4CN3)[C@H](O)C2)c(Br)n1` [Example 197, (2-bromo-6-methyl-3-pyridinyl)[(3R,3′R)-3′-hydroxy-1,4-dihydro-1′H,2H-spiro[isoquinoline-3,4′-piperidin]-1′-yl]methanone], the EC50 in test [1] (setting [3]) came out at 16000 nM; in test [1] (setting [4]), 14.2 nM; in test [2], 1310 nM.

On to `CNc1nc(C)ccc1C(=O)N1CC[C@]2(Cc3ccccc3CN2)[C@H](O)C1` [Example 198, [(3R,3′R)-3′-hydroxy-1,4-dihydro-1′H,2H-spiro[isoquinoline-3,4′-piperidin]-1′-yl][6-methyl-2-(methylamino)-3-pyridinyl]methanone], for which the values for the EC50 in test [1] (setting [3]), in test [1] (setting [4]) and in test [2] were 16000 nM, 19.3 nM and 1070 nM, respectively.

Take `Cc1ccc(C(=O)N2CC[C@]3(Cc4ccccc4CN3)[C@H](O)C2)c(C2CC2)n1` [Example 199, (2-cyclopropyl-6-methyl-3-pyridinyl)[(3R,3′R)-3′-hydroxy-1,4-dihydro-1′H,2H-spiro[isoquinoline-3,4′-piperidin]-1′-yl]methanone]: the EC50 in test [1] (setting [3]) came to 7240 nM; in test [1] (setting [4]), 4.08 nM; in test [2], 503 nM.

Turning to `CCOc1nc(C)ccc1C(=O)N1CC[C@]2(Cc3ccccc3CN2)[C@H](O)C1` [Example 200, (2-ethoxy-6-methyl-3-pyridinyl)[(3R,3′R)-3′-hydroxy-1,4-dihydro-1′H,2H-spiro[isoquinoline-3,4′-piperidin]-1′-yl]methanone], the EC50 in test [1] (setting [3]) was 3020 nM; in test [1] (setting [4]), 6.73 nM; in test [2], 214 nM.

Consider `CCCOc1nc(C)ccc1C(=O)N1CC[C@]2(Cc3ccccc3CN2)[C@H](O)C1` [Example 201, [(3R,3′R)-3′-hydroxy-1,4-dihydro-1′H,2H-spiro[isoquinoline-3,4′-piperidin]-1′-yl](6-methyl-2-propoxy-3-pyridinyl)methanone], for which the EC50 in test [1] (setting [3]) amounted to 1020 nM; in test [1] (setting [4]) it was 1.36 nM; in test [2], 168 nM.

For `O=C(c1cn2cccc(F)c2n1)N1CC[C@]2(Cc3ccccc3CN2)[C@H](O)C1` [Example 202, (8-fluoroimidazo[1,2-a]pyridin-2-yl)[(3R,3′R)-3′-hydroxy-1,4-dihydro-1′H,2H-spiro[isoquinoline-3,4′-piperidin]-1′-yl]methanone], the EC50 worked out at 16200 nM in test [1] (setting [3]), 26.3 nM in test [1] (setting [4]) and 795 nM in test [2].

For the molecule `Cc1cc(I)c2nc(C(=O)N3CC[C@]4(Cc5ccccc5CN4)[C@H](O)C3)cn2c1` [Example 203, [(3R,3′R)-3′-hydroxy-1,4-dihydro-1′H,2H-spiro[isoquinoline-3,4′-piperidin]-1′-yl](8-iodo-6-methylimidazo[1,2-a]pyridin-2-yl)methanone], the EC50 was found to be 292 nM in test [1] (setting [3]), 0.846 nM in test [1] (setting [4]) and 25.7 nM in test [2].

Regarding `Cc1ccc(C(=O)N2CC[C@]3(Cc4ccccc4CN3)[C@H](O)C2)c(Cl)n1` [Example 204, (2-chloro-6-methyl-3-pyridinyl)[(3R,3′R)-3′-hydroxy-1,4-dihydro-1′H,2H-spiro[isoquinoline-3,4′-piperidin]-1′-yl]methanone], the EC50 came to 14600 nM in test [1] (setting [3]), 21.9 nM in test [1] (setting [4]) and 1590 nM in test [2].

Turning to `COc1nc(C)ccc1C(=O)N1CC[C@]2(Cc3ccccc3CN2)[C@H](O)C1` [Example 205, [(3R,3′R)-3′-hydroxy-1,4-dihydro-1′H,2H-spiro[isoquinoline-3,4′-piperidin]-1′-yl](2-methoxy-6-methyl-3-pyridinyl)methanone], the values for the EC50 in test [1] (setting [3]), in test [1] (setting [4]) and in test [2] were 2750 nM, 2.8 nM and 324 nM, respectively.

As to `O=C(c1cn2cccc(Cl)c2n1)N1CC[C@]2(Cc3ccccc3CN2)[C@H](O)C1` [Example 206, (8-chloroimidazo[1,2-a]pyridin-2-yl)[(3R,3′R)-3′-hydroxy-1,4-dihydro-1′H,2H-spiro[isoquinoline-3,4′-piperidin]-1′-yl]methanone], the EC50 in test [1] (setting [3]) was 7240 nM; in test [1] (setting [4]), 4.33 nM; in test [2], 363 nM.

The EC50 is the concentration giving half of the maximal effect.
